From patent publication US11084800B2 (Achillion Pharmaceuticals, Inc., priority 2017, dated 2021)

target: Human Factor D (Homo sapiens (Human), UniProt P00746); experiment: Human Factor D Assay; type: biochemical; details: Factor D inhibition, assay of Example 10; read-out: IC5 (Stars)
Procedure, shortened: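 Serum-purified Factor D (80 nM final) preincubated 5 min at room temperature with compound in 50 mM Tris, 1 M NaCl, pH 7.5. Z-L-Lys-SBz and DTNB added at 100 μM each; A405 followed every 30 s for 30 min. IC50 from nonlinear regression of rates versus concentration.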

Human Factor D, sequence (P00746 26-253): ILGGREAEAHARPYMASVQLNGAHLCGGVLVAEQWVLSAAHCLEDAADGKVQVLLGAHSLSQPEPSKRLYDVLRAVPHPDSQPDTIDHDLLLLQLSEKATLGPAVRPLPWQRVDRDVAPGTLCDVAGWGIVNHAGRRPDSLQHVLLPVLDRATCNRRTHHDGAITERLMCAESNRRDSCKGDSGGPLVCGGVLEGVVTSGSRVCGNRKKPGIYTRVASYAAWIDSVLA

Compound | IC50
CC(=O)c1nn(CC(=O)N2[C@H](C(=O)Nc3cccn(-c4ccccn4)c3=O)C[C@@]3(C)C[C@@H]23)c2c(C)cc(-c3cnc(C)nc3)cc12 [Compound 460, (1R,3S,5R)-2-{2-[3-Acetyl-7-methyl-5-(2-methylpyrimidin-5-yl)indazol-1-yl]acetyl}-5-methyl-N-{2-oxo-[1,2′-bipyridine]-3-yl}-2-azabicyclo[3.1.0]hexane-3-carboxamide] | < 1000 nM
CC(=O)c1nn(CC(=O)N2[C@H](C(=O)Nc3nc(Br)ccc3CN(C)C)C[C@@]3(C)C[C@@H]23)c2c(Cl)cc(-c3cnc(C)nc3)cc12 [Compound 408, (1R,3S,5R)-2-(2-(3-acetyl-7-chloro-5-(2-methylpyrimidin-5-yl)-1H-indazol-1-yl)acetyl)-N-(6-bromo-3-((dimethylamino)methyl)pyridin-2-yl)-5-methyl-2-azabicyclo[3.1.0]hexane-3-carboxamide] | < 1000 nM
CNC(=O)[C@@H]1C[C@@]2(C)C[C@H]2N1C(=O)Cn1nc(C(C)=O)c2cc(-c3cnc(C)nc3)cc(C)c21 [Compound 513, (1R,3S,5R)-2-(2-(3-acetyl-7-methyl-5-(2-methylpyrimidin-5-yl)-1H-indazol-1-yl)acetyl)-N,5-dimethyl-2-azabicyclo[3.1.0]hexane-3-carboxamide] | < 1000 nM
CCCCNC(=O)[C@@H]1C[C@@]2(C)C[C@H]2N1C(=O)Cn1nc(C(C)=O)c2cc(-c3cnc(C)nc3)ccc21 [Compound 488, (1R,3S,5R)-2-(2-(3-acetyl-5-(2-methylpyrimidin-5-yl)-1H-indazol-1-yl)acetyl)-N-butyl-5-methyl-2-azabicyclo[3.1.0]hexane-3-carboxamide] | < 1000 nM
CC(=O)c1nn(CC(=O)N2[C@H](C(=O)Nc3nc(C(F)(F)F)ccc3C)C[C@@]3(Cc4nnc(C)o4)C[C@@H]23)c2c(C)cc(-c3cnc(C)nc3)cc12 [Compound 435, (1R,3S,5R)-2-(2-(3-acetyl-7-methyl-5-(2-methylpyrimidin-5-yl)-1H-indazol-1-yl)acetyl)-5-((5-methyl-1,3,4-oxadiazol-2-yl)methyl)-N-(3-methyl-6-(trifluoromethyl)pyridin-2-yl)-2-azabicyclo[3.1.0]hexane-3-carboxamide] | < 1000 nM

same assay, conditions: Table 6; Factor D 80 nM, substrate Z-L-Lys-SBz; read-out: IC50

Compound | IC50
CC(=O)c1nn(CC(=O)N2[C@H](C(=O)Nc3nc(Br)c(F)cc3C)C[C@@]3(C)C[C@@H]23)c2cnc(-c3cnc(C)nc3)cc12 [Compound 104, (1R,3S,5R)-2-(2-(3-Acetyl-5-(2-methylpyrimidin-5-yl)-1H-pyrazolo[3,4-c]pyridin-1-yl)acetyl)-N-(6-bromo-5-fluoro-3-methylpyridin-2-yl)-5-methyl-2-azabicyclo[3.1.0]hexane-3-carboxamide] | < 1000 nM
CC(=O)c1nn(CC(=O)N2[C@H](C(=O)Nc3nc(Br)ccc3C)C[C@@]3(CN4CC(F)(F)C4)C[C@@H]23)c2c(C)cc(-c3cnc(C)nc3)cc12 [Compound 150, (1R,3S,5R)-2-(2-(3-Acetyl-7-methyl-5-(2-methylpyrimidin-5-yl)-1H-indazol-1-yl)acetyl)-N-(6-bromo-3-methylpyridin-2-yl)-5-((3,3-difluoroazetidin-1-yl)methyl)-2-azabicyclo[3.1.0]hexane-3-carboxamide] | < 1000 nM
CC(=O)c1nn(CC(=O)N2[C@H](C(=O)Nc3nc(Br)ccc3C)C[C@@]3(Cn4cc([Si](C)(C)C)nn4)C[C@@H]23)c2ccc(-c3cnc(C)nc3)cc12 [Compound 202, (1R,3S,5R)-2-(2-(3-acetyl-5-(2-methylpyrimidin-5-yl)-1H-indazol-1-yl)acetyl)-N-(6-bromo-3-methylpyridin-2-yl)-5-((4-(trimethylsilyl)-1H-1,2,3-triazol-1-yl)methyl)-2-azabicyclo[3.1.0]hexane-3-carboxamide] | < 1000 nM

same assay, conditions: Table 8; Factor D 80 nM, substrate Z-L-Lys-SBz; read-out: IC50

IC50 | Compound
< 1000 nM | COC(=O)CCCCCCCCCCCCCCCCC(=O)N[C@@H](CCC(=O)NCCOCCOCC(=O)NCCOCCOCC(=O)NCc1ncc(-c2cc3c(C(C)=O)nn(CC(=O)N4[C@H](C(=O)Nc5nc(Br)ccc5C)C[C@@]5(C)C[C@@H]45)c3cn2)cn1)C(=O)OC [Compound 405]
